Results from EP0584797A2, “Novel cephalosporin compounds and processes for the preparation thereof” (LUCKY LTD., priority 1992, dated 1994).
≈ marks a conversion by molar mass, not a printed value.

Assays:
Assay in all cases: minimal inhibitory concentration, two-fold agar dilution
Format in all cases: cell-based
[1] = tested on: Bacillus cereus ATCC 11778; conditions: ATCC11778, Muller-Hinton agar, 37°C, 20 hours, read-out: MIC values against the standard strains
Outline: (§1)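 Compounds were serially diluted two-fold into Mueller-Hinton agar, and each plate was spot-inoculated with the test strain at 10⁷ CFU per ml. Plates were incubated at 37°C for 20 hours before MIC values were read.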

[2] = tested on: Salmonella typhimurium ATCC 14028; conditions: Salmonella enterica; Muller-Hinton agar; 37°C; 20 hours; read-out: MIC values against the standard strains
Outline: as §1

[3] = tested on: Proteus mirabilis ATCC 25933; conditions: ATCC25933, Muller-Hinton agar, 37°C, 20 hours, read-out: MIC values against the standard strains
Outline: as §1

[4] = tested on: Pseudomonas aeruginosa ATCC 27853; conditions: ATCC27853, Muller-Hinton agar, 37°C, 20 hours, read-out: MIC values against the standard strains
Outline: as §1

[5] = tested on: Escherichia coli ATCC 25922; conditions: ATCC25922, Muller-Hinton agar, 37°C, 20 hours, read-out: MIC values against the standard strains
Outline: as §1

[6] = tested on: Staphylococcus epidermidis ATCC 12228; conditions: ATCC12228, Muller-Hinton agar, 37°C, 20 hours, read-out: MIC values against the standard strains
Outline: as §1

[7] = tested on: Staphylococcus aureus ATCC 10537; conditions: ATCC10537, Muller-Hinton agar, 37°C, 20 hours, read-out: MIC values against the standard strains
Outline: as §1

[8] = tested on: Micrococcus luteus ATCC 9341; conditions: ATCC9341, Muller-Hinton agar, 37°C, 20 hours, read-out: MIC values against the standard strains
Outline: as §1

[9] = tested on: Klebsiella pneumoniae ATCC 10031; conditions: ATCC10031, Muller-Hinton agar, 37°C, 20 hours, read-out: MIC values against the standard strains
Outline: as §1

[10] = tested on: Morganella morganii ATCC 8076h; conditions: ATCC8076H, Muller-Hinton agar, 37°C, 20 hours, read-out: MIC values against the standard strains
Outline: as §1

[11] = tested on: Staphylococcus aureus ATCC 6538p; conditions: ATCC6538P, Muller-Hinton agar, 37°C, 20 hours, read-out: MIC values against the standard strains
Outline: as §1

[12] = tested on: Acinetobacter calcoaceticus ATCC 15437; conditions: ATCC15437, Muller-Hinton agar, 37°C, 20 hours, read-out: MIC values against the standard strains
Outline: as §1

[13] = tested on: Providencia rettgeri ATCC 9250; conditions: ATCC9250, Muller-Hinton agar, 37°C, 20 hours, read-out: MIC values against the standard strains
Outline: as §1

[14] = tested on: Pseudomonas aeruginosa ATCC 10145; conditions: ATCC10145, Muller-Hinton agar, 37°C, 20 hours, read-out: MIC values against the standard strains
Outline: as §1

[15] = tested on: Enterobacter cloacae ATCC 27508; conditions: ATCC27508, Muller-Hinton agar, 37°C, 20 hours, read-out: MIC values against the standard strains
Outline: as §1

[16] = tested on: Shigella sonnei ATCC 11060; conditions: ATCC11060, Muller-Hinton agar, 37°C, 20 hours, read-out: MIC values against the standard strains
Outline: as §1

[17] = tested on: Enterobacter aerogenes ATCC 29751; conditions: Klebsiella aerogenes, ATCC29751; Muller-Hinton agar; 37°C; 20 hours; read-out: MIC values against the standard strains
Outline: as §1

[18] = tested on: Pseudomonas aeruginosa ATCC 25619; conditions: ATCC25619, Muller-Hinton agar, 37°C, 20 hours, read-out: MIC values against the standard strains
Outline: as §1

[19] = tested on: Escherichia coli ATCC 10536; conditions: ATCC10536, Muller-Hinton agar, 37°C, 20 hours, read-out: MIC values against the standard strains
Outline: as §1

[20] = tested on: Shigella flexneri ATCC 11836; conditions: ATCC11836, Muller-Hinton agar, 37°C, 20 hours, read-out: MIC values against the standard strains
Outline: as §1

[21] = tested on: Streptococcus faecalis ATCC 29212; conditions: Enterococcus faecalis, ATCC29212; Muller-Hinton agar; 37°C; 20 hours; read-out: MIC values against the standard strains
Outline: as §1

[22] = tested on: Proteus vulgaris ATCC 6059; conditions: ATCC6059, Muller-Hinton agar, 37°C, 20 hours, read-out: MIC values against the standard strains
Outline: as §1

[23] = tested on: Bacillus megaterium ATCC 9885; conditions: Priestia megaterium, ATCC9885; Muller-Hinton agar; 37°C; 20 hours; read-out: MIC values against the standard strains
Outline: as §1

[24] = tested on: Citrobacter freundii ATCC 8090; conditions: ATCC8090, Muller-Hinton agar, 37°C, 20 hours, read-out: MIC values against the standard strains
Outline: as §1

[25] = tested on: Serratia marcescens ATCC 27117; conditions: ATCC27117, Muller-Hinton agar, 37°C, 20 hours, read-out: MIC values against the standard strains
Outline: as §1

Compound	MIC [1] [µg/mL]	MIC [2] [µg/mL]	MIC [3] [µg/mL]	MIC [4] [µg/mL]	MIC [5] [µg/mL]	MIC [6] [µg/mL]	MIC [7] [µg/mL]	MIC [8] [µg/mL]	MIC [9] [µg/mL]	MIC [10] [µg/mL]	MIC [11] [µg/mL]	MIC [12] [µg/mL]	MIC [13] [µg/mL]	MIC [14] [µg/mL]	MIC [15] [µg/mL]	MIC [16] [µg/mL]	MIC [17] [µg/mL]	MIC [18] [µg/mL]	MIC [19] [µg/mL]	MIC [20] [µg/mL]	further results
C[n+]1ccc(N)nc1SCC1=C(C(=O)[O-])N2C(=O)[C@@H](NC(=O)/C(=N\OC(C)(C)C(=O)O)c3csc(N)n3)[C@H]2SC1 [Example 2, 7-[(Z)-2-(aminothiazol-4-yl)-2-(carboxyprop-2-oxyimino)acetamido]-3-(4-amino-1-methylpyrimidinium-2-yl)thiomethyl-3-cephem-4-carboxylate]	64 (≈ 105 µM)	0.13 (≈ 0.214 µM)	0.031 (≈ 0.0509 µM)	1 (≈ 1.64 µM)	0.031 (≈ 0.0509 µM)	2 (≈ 3.29 µM)	2 (≈ 3.29 µM)	0.25 (≈ 0.411 µM)	0.031 (≈ 0.0509 µM)	≤ 0.008	4 (≈ 6.57 µM)	4 (≈ 6.57 µM)	≤ 0.008	2 (≈ 3.29 µM)	≤ 0.008	0.063 (≈ 0.104 µM)	1 (≈ 1.64 µM)	1 (≈ 1.64 µM)	0.031 (≈ 0.0509 µM)	0.016 (≈ 0.0263 µM)	MIC [21]: > 128 µg/mL; MIC [22]: 0.063 µg/mL (≈ 0.104 µM); MIC [23]: 0.25 µg/mL (≈ 0.411 µM); MIC [24]: 0.031 µg/mL (≈ 0.0509 µM); MIC [25]: 0.063 µg/mL (≈ 0.104 µM)
CCO/N=C(\C(=O)N[C@@H]1C(=O)N2C(C(=O)[O-])=C(CSc3nc(N)c(N)c(N)[n+]3C)CS[C@H]12)c1csc(N)n1 [Example 3, 7-[(Z)-2-(aminothiazol-4-yl)-2-(ethoxyimino)acetamido]-3-(4,5,6-triamino-1-methylpyrimidinium-2-yl)thiomethyl-3-cephem-4-carboxylate]	32 (≈ 55.1 µM)	0.5 (≈ 0.861 µM)	0.25 (≈ 0.431 µM)	4 (≈ 6.89 µM)	0.063 (≈ 0.108 µM)	0.13 (≈ 0.224 µM)	0.25 (≈ 0.431 µM)	0.031 (≈ 0.0534 µM)	≤ 0.008	≤ 0.008	0.5 (≈ 0.861 µM)	8 (≈ 13.8 µM)	≤ 0.008	8 (≈ 13.8 µM)	0.016 (≈ 0.0276 µM)	0.25 (≈ 0.431 µM)	0.5 (≈ 0.861 µM)	0.5 (≈ 0.861 µM)	0.063 (≈ 0.108 µM)	0.063 (≈ 0.108 µM)	MIC [21]: 64 µg/mL (≈ 110 µM); MIC [22]: 0.25 µg/mL (≈ 0.431 µM); MIC [23]: 0.031 µg/mL (≈ 0.0534 µM); MIC [24]: 0.063 µg/mL (≈ 0.108 µM); MIC [25]: 0.25 µg/mL (≈ 0.431 µM)
CCO/N=C(\C(=O)N[C@@H]1C(=O)N2C(C(=O)[O-])=C(CSc3nc(N)cc[n+]3C)CS[C@H]12)c1csc(N)n1 [Example 4, 7-[(Z)-2-(aminothiazol-4-yl)-2-(ethoxyimino)acetamido]-3-(4-amino-1-methylpyrimidinium-2-yl)thiomethyl-3-cephem-4-carboxylate]	32 (≈ 58.1 µM)	0.25 (≈ 0.454 µM)	0.5 (≈ 0.908 µM)	8 (≈ 14.5 µM)	0.063 (≈ 0.114 µM)	0.13 (≈ 0.236 µM)	0.25 (≈ 0.454 µM)	0.063 (≈ 0.114 µM)	≤ 0.008	≤ 0.008	0.5 (≈ 0.908 µM)	8 (≈ 14.5 µM)	≤ 0.008	16 (≈ 29.1 µM)	≤ 0.008	0.25 (≈ 0.454 µM)	0.25 (≈ 0.454 µM)	1 (≈ 1.82 µM)	0.063 (≈ 0.114 µM)	0.031 (≈ 0.0563 µM)	MIC [21]: 64 µg/mL (≈ 116 µM); MIC [22]: 0.5 µg/mL (≈ 0.908 µM); MIC [23]: 0.13 µg/mL (≈ 0.236 µM); MIC [24]: 0.063 µg/mL (≈ 0.114 µM); MIC [25]: 0.25 µg/mL (≈ 0.454 µM)
CCO/N=C(\C(=O)N[C@@H]1C(=O)N2C(C(=O)[O-])=C(CSc3nc(N)c(N)c(N)[n+]3C)CS[C@H]12)c1nsc(N)n1 [Example 5]	16 (≈ 27.5 µM)	0.25 (≈ 0.43 µM)	0.5 (≈ 0.86 µM)	2 (≈ 3.44 µM)	0.063 (≈ 0.108 µM)	0.25 (≈ 0.43 µM)	0.25 (≈ 0.43 µM)	0.031 (≈ 0.0533 µM)	0.016 (≈ 0.0275 µM)	≤ 0.008	0.5 (≈ 0.86 µM)	2 (≈ 3.44 µM)	≤ 0.008	4 (≈ 6.88 µM)	0.13 (≈ 0.223 µM)	0.25 (≈ 0.43 µM)	0.016 (≈ 0.0275 µM)	0.5 (≈ 0.86 µM)	0.063 (≈ 0.108 µM)	0.031 (≈ 0.0533 µM)	MIC [21]: 32 µg/mL (≈ 55 µM); MIC [22]: 0.5 µg/mL (≈ 0.86 µM); MIC [23]: 0.063 µg/mL (≈ 0.108 µM); MIC [24]: 0.13 µg/mL (≈ 0.223 µM); MIC [25]: 0.25 µg/mL (≈ 0.43 µM)
CCO/N=C(\C(=O)N[C@@H]1C(=O)N2C(C(=O)[O-])=C(CSc3nc(N)cc[n+]3C)CS[C@H]12)c1nsc(N)n1 [Example 6, 7-[(Z)-2-(5-amino-1,2,4-thiadiazol-3-yl)-2-(ethoxyimino)acetamido]-3-(4-amino-1-methylpyrimidinium-2-yl)thiomethyl-3-cephem-4-carboxylate]	16 (≈ 29 µM)	0.5 (≈ 0.906 µM)	0.5 (≈ 0.906 µM)	2 (≈ 3.63 µM)	0.063 (≈ 0.114 µM)	0.13 (≈ 0.236 µM)	0.13 (≈ 0.236 µM)	0.063 (≈ 0.114 µM)	≤ 0.008	≤ 0.008	0.13 (≈ 0.236 µM)	1 (≈ 1.81 µM)	≤ 0.008	4 (≈ 7.25 µM)	0.063 (≈ 0.114 µM)	0.25 (≈ 0.453 µM)	0.016 (≈ 0.029 µM)	0.5 (≈ 0.906 µM)	0.063 (≈ 0.114 µM)	0.063 (≈ 0.114 µM)	MIC [21]: 32 µg/mL (≈ 58 µM); MIC [22]: 0.5 µg/mL (≈ 0.906 µM); MIC [23]: 0.063 µg/mL (≈ 0.114 µM); MIC [24]: 0.063 µg/mL (≈ 0.114 µM); MIC [25]: 0.5 µg/mL (≈ 0.906 µM)
